# Tests used:
# Type in all cases: functional
# Staphylococcus aureus [1] = experiment: Antibacterial activity against Staphylococcus aureus assessed as inhibition of bacterial growth incubated for 24 hrs by microbroth two-fold dilution method
# Escherichia coli [2] = experiment: Antibacterial activity against Escherichia coli assessed as inhibition of bacterial growth incubated for 24 hrs by microbroth two-fold dilution method
# Staphylococcus aureus [3] = experiment: Antibacterial activity against Staphylococcus aureus assessed as diameter of the inhibition circle at 1 mg/ml incubated for 48 hrs
# Streptococcus agalactiae [4] = experiment: Antibacterial activity against Streptococcus agalactiae assessed as inhibition of bacterial growth incubated for 24 hrs by microbroth two-fold dilution method
# Escherichia coli [5] = experiment: Antibacterial activity against Escherichia coli assessed as bacterial growth by measuring optical density at 0.5 times MIC incubated for 12 hrs by real time growth curve analysis
# Staphylococcus aureus [6] = experiment: Antibacterial activity against Staphylococcus aureus assessed as bacterial growth by measuring optical density incubated for 12 hrs by real time growth curve analysis
# Staphylococcus aureus [7] = experiment: Antibacterial activity against Methicillin-resistant Staphylococcus aureus BNCC 337371 assessed as inhibition of bacterial growth incubated for 24 hrs by microbroth two-fold dilution method
# Streptococcus agalactiae [8] = experiment: Antibacterial activity against Streptococcus agalactiae assessed as bacterial growth by measuring optical density at 1 to 2 times MIC incubated for 12 hrs by real time growth curve analysis
# Escherichia coli [9] = experiment: Antibacterial activity against Escherichia coli assessed as bacterial growth by measuring optical density at 1 to 2 times MIC incubated for 12 hrs by real time growth curve analysis
# Streptococcus agalactiae [10] = experiment: Antibacterial activity against Streptococcus agalactiae assessed as bacterial growth by measuring optical density at 0.5 times MIC incubated for 12 hrs by real time growth curve analysis
MIC (Staphylococcus aureus [1]) [µg/mL],MIC (Escherichia coli [2]) [µg/mL],MIC (Streptococcus agalactiae [4]) [µg/mL],SMILES,inhibition zone diameter (Staphylococcus aureus [3]) [mm],OD (Escherichia coli [5]),OD (Staphylococcus aureus [6]),MIC (Staphylococcus aureus [7]) [µg/mL],OD (Streptococcus agalactiae [8]),OD (Escherichia coli [9]),OD (Streptococcus agalactiae [10])
3.91,15.6,1.95,C=C[C@]1(C)C[C@@H](OC(=O)CSc2nc(N(C)C)c3ccsc3n2)[C@]2(C)[C@H](C)CC[C@]3(CCC(=O)[C@H]32)[C@@H](C)[C@@H]1O,21.8,,,,,,
0.122,1.95,0.122,C=C[C@]1(C)C[C@@H](OC(=O)CSc2nccc(N3CCN(CC)CC3)n2)[C@]2(C)[C@H](C)CC[C@]3(CCC(=O)[C@H]32)[C@@H](C)[C@@H]1O,28.6,,,,,,
0.122,1.95,0.061,C=C[C@]1(C)C[C@@H](OC(=O)CSc2nc(N3CCOCC3)c3ccsc3n2)[C@]2(C)[C@H](C)CC[C@]3(CCC(=O)[C@H]32)[C@@H](C)[C@@H]1O,21.6,,,,,,
7.81,> 15.6,0.244,C=C[C@]1(C)C[C@@H](OC(=O)CSc2nc(N/N=C/c3ccc(C(F)(F)F)cc3)c3ccsc3n2)[C@]2(C)[C@H](C)CC[C@]3(CCC(=O)[C@H]32)[C@@H](C)[C@@H]1O,22.2,,,,,,
0.244,3.91,0.122,C=C[C@]1(C)C[C@@H](OC(=O)CSc2nc(C)cc(N3CCN(CC)CC3)n2)[C@]2(C)[C@H](C)CC[C@]3(CCC(=O)[C@H]32)[C@@H](C)[C@@H]1O,23.9,,,,,,
7.81,> 15.6,0.0305,C=C[C@]1(C)C[C@@H](OC(=O)CSc2nc(N/N=C/c3ccc(OC)cc3)c3ccsc3n2)[C@]2(C)[C@H](C)CC[C@]3(CCC(=O)[C@H]32)[C@@H](C)[C@@H]1O,18.8,,,,,,
3.91,> 15.6,1.95,C=C[C@]1(C)C[C@@H](OC(=O)CSc2nc(N/N=C/c3ccc(O)c(Br)c3)c3ccsc3n2)[C@]2(C)[C@H](C)CC[C@]3(CCC(=O)[C@H]32)[C@@H](C)[C@@H]1O,21,,,,,,
7.81,> 15.6,0.244,C=C[C@]1(C)C[C@@H](OC(=O)CSc2nc(N/N=C/c3ccc(OC)cc3O)c3ccsc3n2)[C@]2(C)[C@H](C)CC[C@]3(CCC(=O)[C@H]32)[C@@H](C)[C@@H]1O,23,,,,,,
0.244,7.81,0.244,C=C[C@]1(C)C[C@@H](OC(=O)CSc2nc(C)cc(NCCO)n2)[C@]2(C)[C@H](C)CC[C@]3(CCC(=O)[C@H]32)[C@@H](C)[C@@H]1O,22.8,,,,,,
0.977,7.81,0.488,C=C[C@]1(C)C[C@@H](OC(=O)CSc2nc(N/N=C/c3cccs3)c3ccsc3n2)[C@]2(C)[C@H](C)CC[C@]3(CCC(=O)[C@H]32)[C@@H](C)[C@@H]1O,22.8,,,,,,
0.122,0.976,0.061,C=C[C@]1(C)C[C@@H](OC(=O)CSc2nc(N3CCCNCC3)c3ccsc3n2)[C@]2(C)[C@H](C)CC[C@]3(CCC(=O)[C@H]32)[C@@H](C)[C@@H]1O,26.2,,,,,,
7.81,> 15.6,1.95,C=C[C@]1(C)C[C@@H](OC(=O)CSc2nc(N3CCSCC3)c3ccsc3n2)[C@]2(C)[C@H](C)CC[C@]3(CCC(=O)[C@H]32)[C@@H](C)[C@@H]1O,14,,,,,,
0.488,1.95,0.244,C=C[C@]1(C)C[C@@H](OC(=O)CSc2nc(N3CCN(CC)CC3)cc(C(F)(F)F)n2)[C@]2(C)[C@H](C)CC[C@]3(CCC(=O)[C@H]32)[C@@H](C)[C@@H]1O,21,,,,,,
0.488,3.91,0.244,C=C[C@]1(C)C[C@@H](OC(=O)CSc2nc(N3CCN(CC)CC3)c3ccccc3n2)[C@]2(C)[C@H](C)CC[C@]3(CCC(=O)[C@H]32)[C@@H](C)[C@@H]1O,22.1,,,,,,

SMILES,MIC (Staphylococcus aureus [1]) [µg/mL],MIC (Escherichia coli [2]) [µg/mL],MIC (Streptococcus agalactiae [4]) [µg/mL],inhibition zone diameter (Staphylococcus aureus [3]) [mm],OD (Escherichia coli [5]),OD (Staphylococcus aureus [6]),MIC (Staphylococcus aureus [7]) [µg/mL],OD (Streptococcus agalactiae [8]),OD (Escherichia coli [9]),OD (Streptococcus agalactiae [10])
C=C[C@]1(C)C[C@@H](OC(=O)CSc2nc(NCCO)c3ccccc3n2)[C@]2(C)[C@H](C)CC[C@]3(CCC(=O)[C@H]32)[C@@H](C)[C@@H]1O,0.0153,0.03,0.0153,30.5,<0.3,<0.3,0.0305,0.1,0.1,<0.3
C=C[C@]1(C)C[C@@H](OC(=O)CS[C@@H]2C[C@H]3CC[C@@H](C2)N3C)[C@]2(C)[C@H](C)CC[C@]3(CCC(=O)[C@H]32)[C@@H](C)[C@@H]1O [RETAPAMULIN],0.122,1.95,0.0305,30.4,,,0.0621,,,

# Source: ChEMBL document CHEMBL5120839, “Design, synthesis and antibacterial activity of novel pleuromutilin derivatives with thieno[2,3-d]pyrimidine substitution” (Eur J Med Chem, 2022)
